This note sets out measurements from patent publication US11999806B2, “Broad-spectrum polypeptide against enterovirus and application thereof” (WUHAN INSTITUTE OF VIROLOGY, CHINESE ACADEMY OF SCIENCES, priority 2018, dated 2024).

The subject of this test is EV71. It is filed as cell-based, enterovirus 71. The note with it: RD cells, EV71 0.1 MOI, 24 h; for IC50: read-out: IC50 against EV71 by CCK8 method; for Virus inhibition rate (%): CCK-8. As to the method:
• (1) 293T cells were plated in a 24-well cell plate. • (2) After the cells reached 70%-80% confluence, the MEM medium containing 10% serum was replaced with a MEM medium containing 2% serum (0.5 ml/well), and 5 μl of 10^6 PFU/mL EV71 virus per well was added. • (3) After 1 hour, polypeptides P2, 3A-TAT-EP, 3A-EP-DRI and 3A-EP-PEG-PA were added at a final concentration of 0.01 μM, 0.1 μM, 1 μM, and 10 μM, respectively. • (4) Samples were collected 24 hours after virus infection, and RNA was extracted with a total RNA extraction kit. • (5) The supernatant in each well was discarded, then 350 μl of TRK Lysis Buffer was added to the well and the plate was shaken on the shaker for 5 minutes. • (6) 350 μl of 70% ethanol (DEPC-treated) was added to the well and the plate was shaken on the shaker for 5 minutes. • (7) The mixture in the well was transferred to a RNA extraction column and centrifuged at 12000 g for 1 min. • (8) The solution collected in the recovery tube was added back to the column and centrifuged at 12,000 g for 1 min. • (9) RNA washing buffer 1 was added to the column and centrifuged at 12,000 g for 30 s. • (10) RNA washing buffer 2 was added to the column and centrifuged at 12,000 g for 1 min. • (11) Step (10) was repeated once. • (12) The empty column was centrifuged at 12,000 g for 2 min to completely remove residual RNA washing buffer. • (13) 50 μl DEPC-treated water was added to the column and centrifuge at 12000 g for 2 min. • (14) 2 μl RNA sample was used according to one step qRT-PCR kit for fluorescence quantification experiment. 3. […] Each concentration was tested in triplicate. • (3) The diluted virus solution was added to the plate of step (1), 100 μL per well with the final virus concentration was 0.1 MOI. Wells without polypeptide and virus (well without treatment), wells with virus only were used as controls. • (4) The mixture of step (2) was added to the 96-well plate plated with cells in step (1) and incubated in 5% CO2 at 37° C. for 24 h. Then CCK8 kit was used to determine the inhibitory effect of the polypeptide on virus. • (5) The inhibition rate of different concentrations of polypeptides on viral infection was calculated using the following formula: OD means the value of OD450-OD630, inhibition rate=(OD well with treatment−OD well with virus only)×100%/(OD well without treatment−OD well with virus only)
• (1) RD cells in good growth state were plated in a 96-well plate. • (2) After the cells reached 70%-80% confluence, the MEM medium containing 10% serum was replaced with a MEM medium containing 2% serum. Group without polypeptide and virus, and group with virus but without polypeptide were included as controls. The final virus concentration was 0.1 MOI. • (3) 1 h later, polypeptide CR at a final concentration of 5 μM, 2.5 μM, 1.25 μM, 0.625 μM, 0.3125 μM, and 0.15625 μM was added, respectively. Group without polypeptide and virus, and group with virus but without polypeptide were set as controls. • (4) 24 hours after virus infection, when the change in the control group with only virus was obvious, 10 μl of viable cell detection agent CCK-8 was added to each well and mixed well. • (5) The plate was incubated at 37° C. for 2 h. • (6) The absorbance value at OD450 was measured with a microplate reader. Inhibition rate of polypeptide=(OD well with treatment−OD well with virus only)×100%/(OD well without treatment−OD well with virus only), OD refers to the value of OD450-OD630.
• (1) RD cells in good growth state were plated in a 96-well plate. • (2) After the cells reached 70%-80% confluence, the MEM medium containing 10% serum was replaced with a MEM medium containing 2% serum. Group without polypeptide and virus, and group with virus but without polypeptide were included as controls. The final virus concentration was 0.1 MOI. • (3) 1 h later, polypeptide CR at a final concentration of 2.5 μM, 1.25 μM, 0.625 μM, 0.3125 μM, and 0.15625 μM was added, respectively. […]
For orientation: Tetrazolium dyes change colour on reduction, which living cells bring about.

Values joined by “and” are separate entries in the source; they are usually repeats but may differ in a detail not shown here. Equal values may be shown once. Read-outs that look alike come from different tables or passages of the source. Non-standard residues stand in square brackets, D forms with d. Residues, ends and D or L forms follow the SMILES beside them. No end group written: not given here.

On to YGRKKRRQRRRGSGEEVRQYCR [ER], for which the IC50 is 1260 nM.

For `CC[C@@H](C)[C@@H](NC(=O)[C@H]1CCCN1C(C)=O)C(=O)N[C@@H](C(=O)N[C@H](Cc1c[nH]c2ccccc12)C(=O)NCC(=O)N[C@H](CCC(N)=O)C(=O)N[C@H](CCC(=O)O)C(=O)N[C@H](CCCNC(=N)N)C(=O)N[C@H](CS)C(=O)N[C@H](Cc1ccc(O)cc1)C(=O)N[C@H](CCC(N)=O)C(=O)N[C@H](CCCNC(=N)N)C(=O)N[C@@H](C(=O)N[C@H](CCC(=O)O)C(=O)N[C@H](CCC(=O)O)C(=O)N1CCC[C@@H]1C(=O)N1CCC[C@@H]1C(=O)N[C@H](CCCNC(=N)N)C(=O)N[C@H](CCCNC(=N)N)C(=O)N[C@H](CCCNC(=N)N)C(=O)N[C@H](CCC(N)=O)C(=O)N[C@H](CCCNC(=N)N)C(=O)N[C@H](CCCNC(=N)N)C(=O)N[C@H](CCCCN)C(=O)N[C@H](CCCCN)C(=O)N[C@H](CCCNC(=N)N)C(=O)NCC(=O)N[C@H](Cc1ccc(O)cc1)C(N)=O)C(C)C)[C@H](C)CC` [3A-EP-DRI], the IC50 was determined as 3560 nM.

Take `CC(=O)N[C@H](CCCNC(=N)N)C(=O)N[C@H](CS)C(=O)N[C@H](Cc1ccc(O)cc1)C(=O)N[C@H](CCC(N)=O)C(=O)N[C@H](CCCNC(=N)N)C(=O)N[C@@H](C(=O)N[C@H](CCC(=O)O)C(=O)N[C@H](CCC(=O)O)C(=O)N1CCC[C@@H]1C(=O)N1CCC[C@@H]1C(=O)N[C@H](CCCNC(=N)N)C(=O)N[C@H](CCCNC(=N)N)C(=O)N[C@H](CCCNC(=N)N)C(=O)N[C@H](CCC(N)=O)C(=O)N[C@H](CCCNC(=N)N)C(=O)N[C@H](CCCNC(=N)N)C(=O)N[C@H](CCCCN)C(=O)N[C@H](CCCCN)C(=O)N[C@H](CCCNC(=N)N)C(=O)NCC(=O)N[C@H](Cc1ccc(O)cc1)C(N)=O)C(C)C` [ER-DRI] (Ac-[dR][dC][dY][dQ][dR][dV][dE][dE][dP][dP][dR][dR][dR][dQ][dR][dR][dK][dK][dR]G[dY]-NH2): the IC50 stood at 640 nM. For the same molecule, for the setting “0.625 μM”, the “Virus inhibition rate (%)” value is 37.8% and 40.47% and 37.95%. For the same molecule, the “Virus inhibition rate (%)” value (1.25 μM) was 75.85% and 72.43% and 77.52%. Also, the “Virus inhibition rate (%)” value (2.5 μM) was 78.68% and 85.29% and 79.76%.

As usually defined, the IC50 is the point on the concentration scale where inhibition reaches its midpoint.
